Data taken from patent publication US20240383852A1, “ANTI-VIRAL COMPOUNDS” (INFEX Therapeutics Limited, priority 2021, published 2024).
Counter-ions that a name gives are not always drawn.

Columns and labels:
[1] = target: T1, SARS-CoV-2 PLpro (Severe acute respiratory syndrome coronavirus 2, UniProt P0DTD1); test: biochemical; settings: 60 nM papain-like protease, 50 μM Z-RLRGG-AMC, pH 7.5, 37° C.; read-out: SARS-CoV-2 PLpro IC50
T1 construct: containing 60 nM papain-like protease

[2] = system: human Hep G2 cells (ATCC HB-8065); test: Cytotoxicity in Hep G2 cells (CellTiter-Glo); format: cell-based; settings: Hep G2 cells, 100 μM test article, 24-hour exposure

Cc1ccc(N2CCN(C)CC2)cc1C(=O)N[C@H](C)c1cccc(-c2ccc(CNC3CCCC3)s2)c1 [Example 78, N-[(1R)-1-[3-[5-[(Cyclopentylamino)methyl]-2-thienyl]phenyl]ethyl]-2-methyl-5-(4-methylpiperazin-1-yl)benzamide Dihydrochloride Salt]
IC50 [1]: < 2000 nM
% Cell Viability [2]: 1.3%

Cc1ccc(N2CCN(C)CC2)cc1C(=O)N[C@H](C)c1cccc(-c2ccc(CO)s2)c1 [Example 79, N-[(1R)-1-[3-[5-(Hydroxymethyl)-2-thienyl]phenyl]ethyl]-2-methyl-5-(4-methylpiperazin-1-yl)benzamide]
IC50 [1]: < 2000 nM
% Cell Viability [2]: 52.9%

Cc1ccc(N2CCN(C)CC2)cc1C(=O)N[C@H](C)c1cccc(-c2ccccc2CO)c1 [Example 80, N-[(1R)-1-[3-[2-(Hydroxymethyl)phenyl]phenyl]ethyl]-2-methyl-5-(4-methylpiperazin-1-yl)benzamide]
IC50 [1]: < 2000 nM
% Cell Viability [2]: 79.5%

Cc1ccc(N2CCN(C)CC2)cc1C(=O)N[C@H](C)c1cccc(-c2cc(CO)cc(CO)c2)c1 [Example 81, N-[(1R)-1-[3-[3,5-Bis(hydroxymethyl)phenyl]phenyl]ethyl]-2-methyl-5-(4-methylpiperazin-1-yl)benzamide]
IC50 [1]: < 2000 nM
% Cell Viability [2]: 94.4%

CNC(=O)CCc1cccc([C@@H](C)NC(=O)c2cc(N3CCN(C)CC3)ccc2C)c1 [Example 85, 2-Methyl-N-[(1R)-1-[3-[3-(methylamino)-3-oxo-propyl]phenyl]ethyl]-5-(4-methylpiperazin-1-yl)benzamide]
IC50 [1]: < 10000 nM
% Cell Viability [2]: 85.1%

Cc1ccc(N2CCN(C)CC2)cc1C(=O)N[C@H](C)c1cccc(-c2cccc(C(=O)N(C)CCN(C)C)c2)c1 [Example 86, N-[(1R)-1-[3-[3-[2-(Dimethylamino)ethyl-methyl-carbamoyl]phenyl]phenyl]ethyl]-2-methyl-5-(4-methylpiperazin-1-yl)benzamide]
IC50 [1]: < 2000 nM
% Cell Viability [2]: 72.1%

COCCNC(=O)c1cccc(-c2cccc([C@@H](C)NC(=O)c3cc(N4CCN(C)CC4)ccc3C)c2)c1 [Example 87, N-[(1R)-1-[3-[3-(2-Methoxyethylcarbamoyl)phenyl]phenyl]ethyl]-2-methyl-5-(4-methylpiperazin-1-yl)benzamide]
IC50 [1]: < 2000 nM
% Cell Viability [2]: 74.6%

Cc1ccc(N2CCN(C)CC2)cc1C(=O)N[C@H](C)c1cccc(-c2cccc(C(=O)N3CCN(C)CC3)c2)c1 [Example 88, 2-Methyl-N-[(1R)-1-[3-[3-(4-methylpiperazine-1-carbonyl)phenyl]phenyl]ethyl]-5-(4-methylpiperazin-1-yl)benzamide]
IC50 [1]: < 2000 nM
% Cell Viability [2]: 78.8%

Cc1ccc(N2CCN(C)CC2)cc1C(=O)N[C@H](C)c1cccc(-c2cccc(C(=O)NC[C@H](O)CO)c2)c1 [Example 89]
IC50 [1]: < 5000 nM
% Cell Viability [2]: 96.2%

Cc1ccc(N2CCN(C)CC2)cc1C(=O)N[C@H](C)c1cccc(-c2cccc(C(=O)NC[C@@H](O)CO)c2)c1 [Example 90]
IC50 [1]: < 2000 nM
% Cell Viability [2]: 103.1%

Cc1ccc(N2CCN(C)CC2)cc1C(=O)N[C@H](C)c1cccc(-c2cccc(C(=O)N3CCCCC3)c2)c1 [Example 91, 2-Methyl-5-(4-methylpiperazin-1-yl)-N-[(1R)-1-[3-[3-(piperidine-1-carbonyl)phenyl]phenyl]ethyl]benzamide]
IC50 [1]: < 2000 nM
% Cell Viability [2]: 27.1%

Cc1ccc(N2CCN(C)CC2)cc1C(=O)N[C@H](C)c1cccc(-c2cccc(C(=O)N3CCOCC3)c2)c1 [Example 92, 2-Methyl-5-(4-methylpiperazin-1-yl)-N-[(1R)-1-[3-[3-(morpholine-4-carbonyl)phenyl]phenyl]ethyl]benzamide]
IC50 [1]: < 2000 nM
% Cell Viability [2]: 76.9%

Cc1ccc(N2CCN(C)CC2)cc1C(=O)N[C@H](C)c1cccc(-c2cccc(C(=O)NCCCN(C)C)c2)c1 [Example 93, N-[(1R)-1-[3-[3-[3-(Dimethylamino)propylcarbamoyl]phenyl]phenyl]ethyl]-2-methyl-5-(4-methylpiperazin-1-yl)benzamide]
IC50 [1]: < 2000 nM
% Cell Viability [2]: 41.9%

Cc1ccc(N2CCN(C)CC2)cc1C(=O)N[C@H](C)c1cccc(-c2cccc(C(=O)NCCN(C)C)c2)c1 [Example 94, N-[(1R)-1-[3-[3-[2-(Dimethylamino)ethylcarbamoyl]phenyl]phenyl]ethyl]-2-methyl-5-(4-methylpiperazin-1-yl)benzamide]
IC50 [1]: < 2000 nM
% Cell Viability [2]: 17.3%

Cc1ccc(N2CCN(C)CC2)cc1C(=O)N[C@H](C)c1cccc(-c2cccc(C(=O)N3CC[C@H](O)C3)c2)c1 [Example 95, N-[(1R)-1-[3-[3-[(3S)-3-Hydroxypyrrolidine-1-carbonyl]phenyl]phenyl]ethyl]-2-methyl-5-(4-methylpiperazin-1-yl)benzamide]
IC50 [1]: < 2000 nM
% Cell Viability [2]: 88.5%

Cc1ccc(N2CCN(C)CC2)cc1C(=O)N[C@H](C)c1cccc(CCC(=O)NCCO)c1 [Example 96, N-[(1R)-1-[3-[3-(2-Hydroxyethylamino)-3-oxo-propyl]phenyl]ethyl]-2-methyl-5-(4-methylpiperazin-1-yl)benzamide]
IC50 [1]: < 10000 nM
% Cell Viability [2]: 97.3%

Cc1ccc(N2CCN(C)CC2)cc1C(=O)N[C@H](C)c1cccc(-c2cccc(C(=O)NCCO)c2)c1 [Example 97, N-[(1R)-1-[3-[3-(2-Hydroxyethylcarbamoyl)phenyl]phenyl]ethyl]-2-methyl-5-(4-methylpiperazin-1-yl)benzamide]
IC50 [1]: < 2000 nM
% Cell Viability [2]: 72.1%

Cc1ccc(N2CCN(C)CC2)cc1C(=O)N[C@H](C)c1cccc(-c2cccc(C(=O)NCCN)c2)c1 [Example 98, N-[(1R)-1-[3-[3-(2-Aminoethylcarbamoyl)phenyl]phenyl]eth-yl]-2-methyl-5-(4-methylpiperazin-1-yl)benzamide]
IC50 [1]: < 2000 nM
% Cell Viability [2]: 98.5%

CNCCN(C)C(=O)c1cccc(-c2cccc([C@@H](C)NC(=O)c3cc(N4CCN(C)CC4)ccc3C)c2)c1 [Example 99, 2-Methyl-N-[(1R)-1-[3-[3-[methyl-[2-(methylamino)ethyl]carbamoyl]phenyl]phenyl]ethyl]-5-(4-methylpiperazin-1-yl)benzamide Hydrochloride Salt]
IC50 [1]: < 2000 nM
% Cell Viability [2]: 104.6%

COCCNC(=O)c1cc(-c2cccc([C@@H](C)NC(=O)c3cc(N4CCN(C)CC4)ccc3C)c2)cs1 [Example 100, N-(2-Methoxyethyl)-4-[3-[(1R)-1-[[2-methyl-5-(4-methylpiperazin-1-yl)benzoyl]amino]ethyl]phenyl]thiophene-2-carboxamide]
IC50 [1]: < 2000 nM
% Cell Viability [2]: 65.9%

Cc1ccc(N2CCN(C)CC2)cc1C(=O)N[C@H](C)c1cccc(-c2csc(C(=O)N(C)C)c2)c1 [Example 101, N,N-Dimethyl-4-[3-[(1R)-1-[[2-methyl-5-(4-methylpiperazin-1-yl)benzoyl]amino]ethyl]phenyl]thiophene-2-carboxamide]
IC50 [1]: < 2000 nM
% Cell Viability [2]: 88.1%

Cc1ccc(N2CCN(C)CC2)cc1C(=O)N[C@H](C)c1cccc(N2CCN(C)CC2)c1 [Example 103, 2-Methyl-5-(4-methylpiperazin-1-yl)-N-[(1R)-1-[3-(4-methylpiperazin-1-yl)phenyl]ethyl]benzamide]
IC50 [1]: < 5000 nM
% Cell Viability [2]: 91.4%

Cc1ccc(N2CCN(C)CC2)cc1C(=O)N[C@H](C)c1cccc(N2CCNCC2)c1 [Example 105, 2-Methyl-5-(4-methylpiperazin-1-yl)-N-[(1R)-1-(3-piperazin-1-ylphenyl)ethyl]benzamide]
IC50 [1]: < 5000 nM
% Cell Viability [2]: 113.3%

Cc1ccc(N2CCN(C)CC2)cc1C(=O)N[C@H](C)c1ccc(N2CCNCC2)cc1 [Example 106, 2-Methyl-5-(4-methylpiperazin-1-yl)-N-[(1R)-1-(4-piperazin-1-ylphenyl)ethyl]benzamide]
IC50 [1]: < 5000 nM
% Cell Viability [2]: 87.4%

Cc1ccc(N2CCN(C)CC2)cc1C(=O)N[C@H](C)c1cccc(N2CC(CO)OC2=O)c1 (stereo partly drawn) [Example 107, N-[(1R)-1-[3-[5-(Hydroxymethyl)-2-oxo-oxazolidin-3-yl]phenyl]ethyl]-2-methyl-5-(4-methylpiperazin-1-yl)benzamide]
IC50 [1]: < 5000 nM
% Cell Viability [2]: 100.7%

Cc1ccc(N2CCNCC2)cc1C(=O)N[C@H](C)c1cccc2ccccc12 [Example 108, 2-Methyl-N-[(1R)-1-(1-naphthyl)ethyl]-5-piperazin-1-yl-benzamide]
IC50 [1]: < 2000 nM
% Cell Viability [2]: 2.1%

CC(=O)N1CCN(c2ccc(C)c(C(=O)N[C@H](C)c3cccc4ccccc34)c2)CC1 [Example 109, 5-(4-Acetylpiperazin-1-yl)-2-methyl-N-[(1R)-1-(1-naphthyl)ethyl]benzamide]
IC50 [1]: < 10000 nM
% Cell Viability [2]: 72.9%

Cc1ccc(N2CCN(CCO)CC2)cc1C(=O)N[C@H](C)c1cccc2ccccc12 [Example 111, 5-[4-(2-Hydroxyethyl)piperazin-1-yl]-2-methyl-N-[(1R)-1-(1-naphthyl)ethyl]benzamide]
IC50 [1]: < 2000 nM
% Cell Viability [2]: 74.8%

Cc1ccc(N2CCN(CCO)CC2)cc1C(=O)N[C@H](C)c1cccc(-c2cnn(C)c2)c1 [Example 112, 5-[4-(2-Hydroxyethyl)piperazin-1-yl]-2-methyl-N-[(1R)-1-[3-(1-methylpyrazol-4-yl)phenyl]ethyl]benzamide]
IC50 [1]: < 2000 nM
% Cell Viability [2]: 41.0%

Cc1ccc(N2CCN(CC(=O)N(C)C)CC2)cc1C(=O)N[C@H](C)c1cccc(-c2cnn(C)c2)c1 [Example 113, 5-[4-[2-(Dimethylamino)-2-oxo-ethyl]piperazin-1-yl]-2-methyl-N-[(1R)-1-[3-(1-methylpyrazol-4-yl)phenyl]ethyl]benzamide]
IC50 [1]: < 20000 nM
% Cell Viability [2]: 72.7%
